The record followed here is patent publication US9346815B2, “5-chloro-2-difluoromethoxyphenyl pyrazolopyrimidine compounds, compositions and methods of use thereof” (Genentech, Inc., priority 2014, dated 2016).

By Ki is commonly meant a measure of affinity in units of concentration, obtained from inhibition or displacement.

For series [1], the system named is JAK1-dependent STAT6 phosphorylation downstream of IL-13 stimulation in BEAS-2B human bronchial epithelial cells. Nature of the series: JAK1 pathway assay in BEAS-2B cells (IL-13-pSTAT6, MSD). It counts as cell-based. To be noted: read-out: IL13-pSTAT6 EC50 (uM)_BEAS-2B. The gist of the method: (§1)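 Compound preincubation lasted 1 hr for BEAS-2B cells in complete growth medium and 30 min for GM-CSF-starved TF-1 cells in serum-free medium. EC50 values were determined.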

The test system of series [2] is JAK1-dependent STAT6 phosphorylation downstream of IL-13 stimulation in TF-1 human erythroleukemia cells. Description: JAK1 pathway assay in TF-1 cells (IL-13-pSTAT6, MSD). It counts as cell-based. The note with it: Homo sapiens, TF-1, TF-1 cells, read-out: IL13-pSTAT6 EC50_TF-1. The gist of the method: as §1
The target in series [3] is isolated recombinant JAK1 kinase domain (Homo sapiens (Human), UniProt P23458). Description: JAK1 enzyme assay (Caliper LabChip, peptide phosphorylation). Format: biochemical. To be noted: isolated recombinant JAK1 kinase domain, 25 μM ATP.
Chain of isolated recombinant JAK1 kinase domain (P23458 875-1153): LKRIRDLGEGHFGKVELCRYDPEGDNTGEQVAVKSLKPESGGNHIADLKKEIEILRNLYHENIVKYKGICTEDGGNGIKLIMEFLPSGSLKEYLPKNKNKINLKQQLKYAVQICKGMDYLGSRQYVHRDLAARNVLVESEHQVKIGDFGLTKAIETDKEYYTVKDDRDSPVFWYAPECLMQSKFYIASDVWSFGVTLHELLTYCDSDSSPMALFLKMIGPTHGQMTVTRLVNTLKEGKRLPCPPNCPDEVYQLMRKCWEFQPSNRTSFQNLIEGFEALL
Series [4] has as its target isolated recombinant JAK2 kinase domain (Homo sapiens (Human), UniProt O60674). Description: JAK2 enzyme assay (Caliper LabChip, peptide phosphorylation). It counts as biochemical. To be noted: 25 μM ATP.
The nature of series [5]: Clearance assay: mouse intravenous (IV) clearance. It counts as in vivo. The note with it: female BALB/c mice; for IV Mouse CL, % of liver blood flow: single IV dose of 1 mg/kg, clearance as % of mouse liver blood flow; for clearance: mouse, plasma, single IV dose of 1 mg/kg via the tail vein, read-out: IV Mouse CL. An excerpt:
In certain instances high systemic clearance of a drug substance may be of benefit. For example, in the treatment of pulmonary diseases it may be beneficial to have high drug concentrations in the lung, with lower concentrations in the bloodstream or peripheral organs. In such cases, it may be advantageous to administer a drug substance with high systemic clearance via the inhaled delivery route. This approach may maximize pharmacologic activity of the drug substance in the lung while minimizing the possibility of on-target toxicity elsewhere in the body. The functional groups appended to the 5-chloro-2-difluoromethoxyphenyl pyrazolopyrimidine scaffold affect systemic clearance.
Female BALB/c mice were obtained from Charles River Labs (Hollister, Calif. USA). Twelve animals were given a single IV dose of 1 mg/kg of compounds via the tail vein. A representative dose solution was prepared as follows: the compound was dissolved in a mixture of 5% dimethylsulfoxide (DMSO), 35% polyethylene glycol (PEG 400), and 60% water (v/v/v), respectively, and administered at a dosing volume of 5 mL/kg. Mice weighed approximately 20-25 g at the start of the study. After intravenous administration of compounds, each animal was bled twice via retro-orbital and cardiac puncture. PK time points were collected at 2 min, 5 min, 15 min, 30 min, 1 hr, 2 hr, 4 hr, and 8 hr post-dose. Plasma samples were stored at approximately −80° C. until thawed for LC-MS/MS analysis. PK data analysis was performed on mean plasma concentration-time data and PK parameters were determined by non compartmental methods using WinNonlin® Enterprise, version 5.2.1 (Pharsight Corporation; Mountain View, Calif.).

SMILES strings stand for the structures.

Chain of isolated recombinant JAK2 kinase domain (O60674 849-1124): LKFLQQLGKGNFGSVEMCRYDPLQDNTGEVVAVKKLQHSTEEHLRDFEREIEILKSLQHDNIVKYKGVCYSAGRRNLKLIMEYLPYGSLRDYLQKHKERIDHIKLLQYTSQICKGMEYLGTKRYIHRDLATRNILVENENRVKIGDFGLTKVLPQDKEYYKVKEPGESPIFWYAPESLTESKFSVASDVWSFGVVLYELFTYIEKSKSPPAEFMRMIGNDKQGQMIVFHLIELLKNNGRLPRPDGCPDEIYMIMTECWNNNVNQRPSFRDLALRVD

In the case of `CN1C[C@@H]2CN(C(=O)Cn3cc(NC(=O)c4cnn5cccnc45)c(-c4cc(Cl)ccc4OC(F)F)n3)C[C@@H]2C1` [Example 3, Cis-pyrazolo[1,5-a]pyrimidine-3-carboxylic acid {3-(5-chloro-2-difluoromethoxyphenyl)1-[2-(5-methylhexahydropyrrolo[3,4-c]pyrrol-2-yl)-2-oxoethyl]-1H-pyrazol-4-yl}amide], the results for the EC50 in series [1] and in series [2] were 0.0324 µM and 16.7 nM, respectively. The Ki in series [3] came to 0.79 nM; in series [4], 0.81 nM. Also, in series [5], the “IV Mouse CL, % of liver blood flow” value is given as above 100%. Further, the clearance in series [5] is 216 mL/min/kg.

Consider `CN(C)CC#Cc1nc(-c2cc(Cl)ccc2OC(F)F)c(NC(=O)c2cnn3cccnc23)s1` [Example 209, Pyrazolo[1,5-a]pyrimidine-3-carboxylic acid [4-(5-chloro-2-difluoromethoxy-phenyl)-2-(3-dimethylamino-prop-1-ynyl)-thiazol-5-yl]-amide], for which the EC50 in series [1] worked out at 0.0415 µM; in series [2], 7.4 nM. Also, the Ki in series [3] came to 0.78 nM; in series [4], 0.28 nM. Further, the “IV Mouse CL, % of liver blood flow” value in series [5] is recorded as 71%. Further, the clearance in series [5] worked out at 64 mL/min/kg.

As for `CN(CC(F)(F)F)C1CCN(C(=O)Cn2cc(NC(=O)c3cnn4cccnc34)c(-c3cc(Cl)ccc3OC(F)F)n2)CC1` [Example 99, N-[3-[5-chloro-2-(difluoromethoxy)phenyl]-1-[2-[4-[methyl(2,2,2-trifluoroethyl)amino]-1-piperidyl]-2-oxo-ethyl]pyrazol-4-yl]pyrazolo[1,5-a]pyrimidine-3-carboxamide], the results for the EC50 in series [1] and in series [2] were 0.0305 µM and 1.7 nM, respectively. Besides, the inhibition constant Ki in series [3] came out at 0.4 nM; in series [4], 0.76 nM. In addition, the “IV Mouse CL, % of liver blood flow” value in series [5] is recorded as above 100%. Besides, in series [5], the clearance stood at 234 mL/min/kg.

Consider `Nc1nn2cccnc2c1C(=O)Nc1cn(C2CCNCC2)nc1-c1cc(Cl)ccc1OC(F)F` [Example 2, 2-Amino-pyrazolo[1,5-a]pyrimidine-3-carboxylic acid [3-(5-chloro-2-difluoromethoxy-phenyl)-1-piperidin-4-yl-1H-pyrazol-4-yl]-amide], for which the EC50 in series [1] turned out to be 0.0195 µM; in series [2], 5.2 nM. Besides, the Ki came out at 0.72 nM in series [3] and 0.19 nM in series [4]. Further, the “IV Mouse CL, % of liver blood flow” value in series [5] is given as above 100%. The clearance in series [5] is 580 mL/min/kg.

For `CN1CCN(c2nc(-c3cc(Cl)ccc3OC(F)F)c(NC(=O)c3cnn4cccnc34)s2)CC1` [Example 205, Pyrazolo[1,5-a]pyrimidine-3-carboxylic acid [4-(5-chloro-2-difluoromethoxy-phenyl)-2-(4-methyl-piperazin-1-yl)-thiazol-5-yl]-amide], the EC50 was determined as 0.0338 µM in series [1] and 4.4 nM in series [2]. The figures for the Ki in series [3] and in series [4] were 0.8 nM and 0.58 nM, respectively. The “IV Mouse CL, % of liver blood flow” value in series [5] turned out to be 51%. Moreover, the clearance in series [5] amounted to 46 mL/min/kg.

Take `CN(CC(F)(F)c1ccccc1)C1CCN(C(=O)Cn2cc(NC(=O)c3cnn4cccnc34)c(-c3cc(Cl)ccc3OC(F)F)n2)CC1` [Example 102, N-[3-[5-chloro-2-(difluoromethoxy)phenyl]-1-[2-[4-[(2,2-difluoro-2-phenyl-ethyl)-methyl-amino]-1-piperidyl]-2-oxo-ethyl]pyrazol-4-yl]pyrazolo[1,5-a]pyrimidine-3-carboxamide]: the EC50 was 0.0347 µM in series [1] and 8.5 nM in series [2]. The inhibitory constant (Ki) in series [3] is 0.62 nM; in series [4], 1.1 nM. Besides, in series [5], the “IV Mouse CL, % of liver blood flow” value was above 100%. Besides, the clearance in series [5] turned out to be 140 mL/min/kg.

As for `CN(CCc1ccccc1)C1CCN(C(=O)Cn2cc(NC(=O)c3cnn4cccnc34)c(-c3cc(Cl)ccc3OC(F)F)n2)CC1` [Example 85, N-[3-[5-chloro-2-(difluoromethoxy)phenyl]-1-[2-[4-[methyl(2-phenylethyl)amino]-1-piperidyl]-2-oxo-ethyl]pyrazol-4-yl]pyrazolo[1,5-a]pyrimidine-3-carboxamide], the EC50 in series [1] came to 0.1 µM; in series [2], 15.3 nM. Further, the values for the inhibitory constant (Ki) in series [3] and in series [4] were 0.86 nM and 1.66 nM, respectively. The “IV Mouse CL, % of liver blood flow” value in series [5] is 61%. Further, the clearance in series [5] was determined as 55 mL/min/kg.

As for `CN(Cc1ccccc1)C1CCN(C(=O)Cn2cc(NC(=O)c3cnn4cccnc34)c(-c3cc(Cl)ccc3OC(F)F)n2)CC1` [Example 98, N-[1-[2-[4-[benzyl(methyl)amino]-1-piperidyl]-2-oxo-ethyl]-3-[5-chloro-2-(difluoromethoxy)phenyl]pyrazol-4-yl]pyrazolo[1,5-a]pyrimidine-3-carboxamide], the EC50 is 0.0381 µM in series [1] and 3.8 nM in series [2]. Moreover, the inhibitory constant (Ki) in series [3] is 0.79 nM; in series [4], 1.81 nM. For the same compound, the “IV Mouse CL, % of liver blood flow” value in series [5] is above 100%. Also, the clearance in series [5] turned out to be 178 mL/min/kg.

On to `O=C(Nc1cn(CC(=O)N2CC=CCC2)nc1-c1cc(Cl)ccc1OC(F)F)c1cnn2cccnc12` [Example 284, N-[3-[5-chloro-2-(difluoromethoxy)phenyl]-1-[2-(3,6-dihydro-2H-pyridin-1-yl)-2-oxo-ethyl]pyrazol-4-yl]pyrazolo[1,5-a]pyrimidine-3-carboxamide], for which the EC50 in series [1] was 0.0125 µM; in series [2] it was 1.6 nM. For the same compound, the inhibition constant (Ki) in series [3] was determined as 0.15 nM; in series [4], 0.37 nM. Besides, the “IV Mouse CL, % of liver blood flow” value in series [5] is listed as above 100%. The clearance in series [5] was 219 mL/min/kg.

In the case of `CN(CCC#N)C1CCN(C(=O)Cn2cc(NC(=O)c3cnn4cccnc34)c(-c3cc(Cl)ccc3OC(F)F)n2)CC1` [Example 63, Pyrazolo[1,5-a]pyrimidine-3-carboxylic acid [3-(5-chloro-2-difluoromethoxy-phenyl)-1-(2-{4-[(2-cyano-ethyl)-methyl-amino]-piperidin-1-yl}-2-oxo-ethyl)-1H-pyrazol-4-yl]-amide], the EC50 in series [1] was 0.0122 µM; in series [2], 5.7 nM. Further, the results for the inhibition constant (Ki) in series [3] and in series [4] were 0.34 nM and 0.7 nM, respectively. Moreover, the “IV Mouse CL, % of liver blood flow” value in series [5] was above 100%. Moreover, the clearance in series [5] is 139 mL/min/kg.
